Data: US4417052A, “Phenyl-lower-alkyl piperidines and pyrrolidines” (Sterling Drug Inc., priority 1981, dated 1983)
Read-outs that look alike come from different tables or passages of the source.

Key:
[1] = system: effect of phenazocine in the rat tail flick response; assay: phenazocine antagonist test in the rat tail flick response (T.F. Antag.); settings: in vivo
Description: (§1) The test procedures used to determine the analgesic activities of the compounds have been described in detail in the prior art and are as follows: the acetylcholine-induced abdominal constriction test, which is a primary analgesic screening test designed to measure the ability of a test agent to suppress acetylcholine-induced abdominal constriction in mice, described by Collier et al., Brit. J. Pharmacol. Chemotherap. 32, 295 (1968); a modification of the anti-bradykinin test, which is also a primary analgesic screening procedure, described by Berkowitz et al., J. Pharmacol. Exp. Therap. 177, 500-508 (1971), Blane et al., J. Pharm. Pharmacol. 19, 367-373 (1967), Botha et al., Eur. J. Pharmacol. 6, 312-321 (1969) and Deffenu et al., J. Pharm. Pharmacol. 18, 135 (1966); the phenyl-p-quinone-induced writhing test, also a primary analgesic screening test, designed to measure the ability of a test agent to prevent phenyl-p-quinone-induced writhing in mice, described by Pearl and Harris, J. Pharmacol. Exptl. Therap. 154, 319-323 (1966); the rat tail flick radiant thermal heat analgesic (agonist) test described by D'Amour and Smith, J. Pharmacol. Exptl. Therap. 72, 74 (1941) as modified by Bass and VanderBrook, J. Am. Pharm. Assoc. Sci. Ed. […]

bradykinin = assay: anti-bradykinin test (BDK); type: in vivo
Description: (§2) The test procedures used to determine the analgesic activities of the compounds have been described in detail in the prior art and are as follows: the acetylcholine-induced abdominal constriction test, which is a primary analgesic screening test designed to measure the ability of a test agent to suppress acetylcholine-induced abdominal constriction in mice, described by Collier et al., Brit. J. Pharmacol. Chemotherap. 32, 295 (1968); a modification of the anti-bradykinin test, which is also a primary analgesic screening procedure, described by Berkowitz et al., J. Pharmacol. Exp. Therap. 177, 500-508 (1971), Blane et al., J. Pharm. Pharmacol. 19, 367-373 (1967), Botha et al., Eur. J. Pharmacol. 6, 312-321 (1969) and Deffenu et al., J. Pharm. Pharmacol. 18, 135 (1966); the phenyl-p-quinone-induced writhing test, also a primary analgesic screening test, designed to measure the ability of a test agent to prevent phenyl-p-quinone-induced writhing in mice, described by Pearl and Harris, J. Pharmacol. Exptl. Therap. 154, 319-323 (1966); the rat tail flick radiant thermal heat analgesic (agonist) test described by D'Amour and Smith, J. Pharmacol. Exptl. Therap. 72, 74 (1941) as modified by Bass and VanderBrook, J. Am. Pharm. Assoc. Sci. Ed. 41, 569 (1956); and the phenazocine antagonist test, which is designed to measure the ability of a test agent to antagonize the effect of phenazocine in the above-indicated rat tail flick response test, described by Harris and Pierson, J. Pharmacol. Exptl. Therap. 143, 141 (1964).
Data so obtained for the species found active in one or more of these tests are given in TABLE C below, results being expressed either in terms of the ED50 or, in the acetylcholine-induced writhing test, as the percent inhibition of writhing in the test animals at a given dose level. The ED50 is the calculated Effective Dose in 50% of the test animals. The abbreviations s.c., p.o. and i.p. stand for subcutaneous, peroral and intraperitoneal routes of administration, respectively. The compounds are identified by the Example numbers above where their preparations are described.

rat tail flick response = assay: rat tail flick radiant thermal heat analgesic (agonist) test (T.F. Ag.); settings: in vivo
Description: as §1

[2] = system: carrageenin-induced foot edema; assay: inhibition of carrageenin-induced foot edema test (C.E.); type: in vivo; settings: oral, read-out: C.E. percent inhibition
[3] = antipyretic activity in the rat; type: in vivo
[4] = system: phenyl-p-quinone-induced writhing; assay: phenyl-p-quinone-induced writhing test (PPQ); type: in vivo, mice; settings: Mus musculus, po
Description: as §1

[5] = system: acetylcholine-induced abdominal constriction; assay: acetylcholine-induced abdominal constriction test (Ach); type: in vivo, mice; settings: Mus musculus, read-out: Ach ED50
Description: as §2, with “J.” for “The test procedures used to determine the analgesic activities of the compounds have been described in detail in the prior art and are as follows: the acetylcholine-induced abdominal constriction test, which is a primary analgesic screening test designed to measure the ability of a test agent to suppress acetylcholine-induced abdominal constriction in mice, described by Collier et al., Brit. J.”
The ED50 is the calculated Effective Dose in 50% of the test animals. The abbreviations s.c., p.o. and i.p. stand for subcutaneous, peroral and intraperitoneal routes of administration, respectively. The compounds are identified by the Example numbers above where their preparations are described.

| SMILES | T.F. Antag. [1] | ED50 (bradykinin; ip) | ED50 (bradykinin; po) | T.F. Ag. (rat tail flick response) | inhibition in vivo at 80 µmol/kg ([2]; dose 0.08 millimoles/kg) | inhibition in vivo at 324 µmol/kg ([2]; dose 0.324 millimoles/kg) | antipyretic activity ([3]; 3.25 mg./kg. p.o.) | antipyretic activity ([3]; 6.5 mg./kg. p.o.) | antipyretic activity ([3]; 13 mg./kg. p.o.) | antipyretic activity ([3]; 26 mg./kg. p.o.) | ED50 [4] | ED50 ([5]; po) | ED50 ([5]; sc) |
| --- | --- | --- | --- | --- | --- | --- | --- | --- | --- | --- | --- | --- | --- |
| CC(CN1CCOCC1)c1cccc(C(=O)c2ccccc2)c1.Cl.O (stereo not shown) [7H (HCl), 4-[2-(3-benzoylphenyl)propyl]morpholine hydrochloride monohydrate] | Inac. | 82 mg/kg | 13 mg/kg | Inac. | 68% | 73% | not at 3.25 mg./kg. | Showed significant antipyretic activity | Showed significant antipyretic activity | Showed significant antipyretic activity | 132 mg/kg | 8.4 mg/kg | 14 mg/kg |
| CC(CN1CCC2(CC1)OCCO2)c1cccc(C(=O)c2ccccc2)c1 (stereo not shown) [Example 7G, 8-[2-(3-Benzoylphenyl)propyl]-1,4-dioxa-8-azaspiro[4,5]decane] | Inac. |  | 14 mg/kg | Inac. |  |  | not at 6.5 or 3.25 mg./kg. | not at 6.5 or 3.25 mg./kg. | Showed significant antipyretic activity | Showed significant antipyretic activity | 200 mg/kg | 4.7 mg/kg |  |
